# Values joined by “and” are separate entries in the source; they are usually repeats but may differ in a detail not shown here. Equal values may be shown once. Read-outs that look alike come from different tables or passages of the source.
# Experiment: Compound 3 blood PK in SW48 tumour-bearing mice
# Type: in vivo, mouse
# Procedure: All animal studies were conducted in accordance with ethics and procedures covered by permit BS-2275 and BS-1975 issued by the Kantonales Veterinäramt Basel-Stadt and in strict adherence to guidelines of the Eidgenössisches Tierschutzgesetz and the Eidgenössische Tierschutzverordnung, Switzerland. All animal studies were approved by the internal ethics committee. All animals had access to food and water ad libitum and were identified with transponders. They were housed in a specific-pathogen-free facility in IVC racks under a 12 h–12 h light–dark cycle. To establish cell-line-derived xenograft models, 6–7-week-old female athymic nude (Crl:NU(NCr)-Foxn1^nu) or SCID-BEIGE (CB17.Cg-PrkdcscidLystbg-J/Crl) mice from Charles River were engrafted subcutaneously with 5 million tumour cells in HBSS (H6648, Sigma-Aldrich). For SNU-407, Lovo, IM95, RL95.2, Ishikawa and IGROV-1, the cells were concentrated in 50% Matrigel (354234, Corning). Patient-derived xenografts were induced and expanded by transplantation as previously described. […]. For the efficacy experiment, mice were randomized into groups (n = 5–6) for a mean tumour size of 100–150 mm^3. […] Blood samples were collected on day 7 and 91. […]. Tumour responses are reported with the measures of tumour volumes from the treatment start. […]. Animals were randomized (n = 3) and tumour samples were collected at 0, 1, 4, 8 and 24 h on the first day and then collected 4 h after the last treatment on day 3, 8, 10, 14 (including a 24 h timepoint), 17 and 21. Tumours were excised, weighed, either frozen in liquid nitrogen and cryogenic dry pulverized with the CryoPrep system (model CP-02, Covaris) or processed to FFPE after fixation. […]. On day 12, blood samples were collected for PK analysis. On the last day (3 h after the last treatment), tumours were excised, weighed, frozen in liquid nitrogen and cryogenic dry pulverized for PD analysis. […]. […]
smiles,measurement,setting,value
CCc1c(N2CCN(C(=O)c3ncccc3O)CC2)c(=O)n2nc(C3=CCOCC3)nc2n1CC(=O)Nc1ccc(C(F)(F)F)cc1C [compound 3],concentration at 4 h,"15mg/kg BID, 1 h, single mouse, listed as WRNi #4, read-out: Total blood concentration",680 nM and 520 nM
same,concentration at 4 h,"15mg/kg BID, 2 h, single mouse, listed as WRNi #4, read-out: Total blood concentration",110 nM and 260 nM and 360 nM
same,concentration at 4 h,"15mg/kg BID, 4 h, single mouse, listed as WRNi #4, read-out: Total blood concentration",100 nM and 200 nM
same,concentration at 4 h,"15mg/kg BID, 8 h, single mouse, listed as WRNi #4, read-out: Total blood concentration",80 nM and 130 nM and 220 nM
same,concentration at 4 h,"15mg/kg BID, last day of the efficacy experiment, 0.5 h post treatment, single mouse, listed as WRNi #4, read-out: Total blood concentration",450 nM and 470 nM and 950 nM
same,concentration at 4 h,"50mg/kg BID, 0.5 h, single mouse, listed as WRNi #4, read-out: Total blood concentration",8660 nM and 6870 nM
same,concentration at 4 h,"50mg/kg BID, 1 h, single mouse, listed as WRNi #4, read-out: Total blood concentration",5090 nM and 4750 nM
same,concentration at 4 h,"50mg/kg BID, 2 h, single mouse, listed as WRNi #4, read-out: Total blood concentration",1600 nM and 2410 nM
same,concentration at 4 h,"50mg/kg BID, 4 h, single mouse, listed as WRNi #4, read-out: Total blood concentration",470 nM and 240 nM and 860 nM
same,concentration at 4 h,"50mg/kg BID, 8 h, single mouse, listed as WRNi #4, read-out: Total blood concentration",100 nM and 210 nM and 230 nM
same,concentration at 4 h,"150mg/kg BID, 0.5 h, single mouse, listed as WRNi #4, read-out: Total blood concentration",23940 nM and 28210 nM
same,concentration at 4 h,"150mg/kg BID, 1 h, single mouse, listed as WRNi #4, read-out: Total blood concentration",13050 nM and 11280 nM
same,concentration at 4 h,"150mg/kg BID, 2 h, single mouse, listed as WRNi #4, read-out: Total blood concentration",7350 nM and 7410 nM
same,concentration at 4 h,"150mg/kg BID, 4 h, single mouse, listed as WRNi #4, read-out: Total blood concentration",3220 nM and 720 nM and 1060 nM
same,concentration at 4 h,"150mg/kg BID, 8 h, single mouse, listed as WRNi #4, read-out: Total blood concentration",460 nM and 210 nM and 390 nM
same,concentration at 0.5 h,"female, mouse, whole blood, oral, 15 mg/kg, 15mg/kg BID, 0.5 h, read-out: Mean total blood concentration",620 nM
same,concentration at 1 h,"female, mouse, whole blood, oral, 15 mg/kg, 15mg/kg BID, 1 h, read-out: Mean total blood concentration",680 nM
same,concentration at 1 h,"female, mouse, whole blood, oral, 15 mg/kg, 15mg/kg BID, 1 h, single mouse, read-out: Total blood concentration",840 nM
same,concentration at 2 h,"female, mouse, whole blood, oral, 15 mg/kg, 15mg/kg BID, 2 h, read-out: Mean total blood concentration",240 nM
same,concentration at 4 h,"female, mouse, whole blood, oral, 15 mg/kg, 15mg/kg BID, 4 h, read-out: Mean total blood concentration",130 nM
same,concentration at 4 h,"female, mouse, whole blood, oral, 15 mg/kg, 15mg/kg BID, 4 h, single mouse, read-out: Total blood concentration",100 nM
same,concentration at 8 h,"female, mouse, whole blood, oral, 15 mg/kg, 15mg/kg BID, 8 h, read-out: Mean total blood concentration",140 nM
same,concentration at 0.5 h,"female, mouse, whole blood, oral, 50 mg/kg, 50mg/kg BID, 0.5 h, read-out: Mean total blood concentration",7340 nM
same,concentration at 0.5 h,"female, mouse, whole blood, oral, 50 mg/kg, 50mg/kg BID, 0.5 h, single mouse, read-out: Total blood concentration",6500 nM
same,concentration at 1 h,"female, mouse, whole blood, oral, 50 mg/kg, 50mg/kg BID, 1 h, read-out: Mean total blood concentration",4820 nM
same,concentration at 1 h,"female, mouse, whole blood, oral, 50 mg/kg, 50mg/kg BID, 1 h, single mouse, read-out: Total blood concentration",4620 nM
same,concentration at 2 h,"female, mouse, whole blood, oral, 50 mg/kg, 50mg/kg BID, 2 h, read-out: Mean total blood concentration",2060 nM
same,concentration at 2 h,"female, mouse, whole blood, oral, 50 mg/kg, 50mg/kg BID, 2 h, single mouse, read-out: Total blood concentration",2180 nM
same,concentration at 4 h,"female, mouse, whole blood, oral, 50 mg/kg, 50mg/kg BID, 4 h, read-out: Mean total blood concentration",520 nM
same,concentration at 8 h,"female, mouse, whole blood, oral, 50 mg/kg, 50mg/kg BID, 8 h, read-out: Mean total blood concentration",180 nM
same,concentration at 0.5 h,"female, mouse, whole blood, oral, 150 mg/kg, 150mg/kg BID, 0.5 h, read-out: Mean total blood concentration",22900 nM
same,concentration at 0.5 h,"female, mouse, whole blood, oral, 150 mg/kg, 150mg/kg BID, 0.5 h, single mouse, read-out: Total blood concentration",16500 nM
same,concentration at 1 h,"female, mouse, whole blood, oral, 150 mg/kg, 150mg/kg BID, 1 h, read-out: Mean total blood concentration",14700 nM
same,concentration at 1 h,"female, mouse, whole blood, oral, 150 mg/kg, 150mg/kg BID, 1 h, single mouse, read-out: Total blood concentration",19700 nM
same,concentration at 2 h,"female, mouse, whole blood, oral, 150 mg/kg, 150mg/kg BID, 2 h, read-out: Mean total blood concentration",8330 nM
same,concentration at 2 h,"female, mouse, whole blood, oral, 150 mg/kg, 150mg/kg BID, 2 h, single mouse, read-out: Total blood concentration",10200 nM
same,concentration at 4 h,"female, mouse, whole blood, oral, 150 mg/kg, 150mg/kg BID, 4 h, read-out: Mean total blood concentration",1670 nM
same,concentration at 8 h,"female, mouse, whole blood, oral, 150 mg/kg, 150mg/kg BID, 8 h, read-out: Mean total blood concentration",350 nM

# — PMC11078746 (Nature, 2024)
